Assay results published in PMC7125889 (Bioorganic & Medicinal Chemistry, 2008).
Counter-ions that a name gives are not always drawn. Blank lines part the entries; values can stand above or below the molecule they belong to.

What was measured:
[1] = test system: NMDA receptors; experiment: NMDA receptor antagonist functional assay, intracellular calcium; type: cell-based; settings: for times more potent than amantadine as NMDA receptor antagonist: vs amantadine
[2] = test system: bloodstream form T. brucei (strain 427); experiment: Trypanocidal activity against cultured bloodstream form T. brucei; settings: concentrations up to 5 μg mL−1

NMDA receptor antagonist activity (in words) ([1]; cerebellar granule neurons, highest concentration tested): no NMDA receptor antagonist activity
SMILES: NCC12CC3CC(CC1C3)C2 [Compound 14, [(Tricyclo[3.3.1.0^3,7]non-3-yl)methyl]amine hydrochloride]

SMILES: CC12CC3CC1(C)CC3(N)C2 [Compound 21, 3,7-Dimethyl(tricyclo[3.3.0.0^3,7]oct-1-yl)amine·HCl]
activity against cultured bloodstream form T. brucei [2]: no significant activity
times more potent as NMDA receptor antagonist than 3-noradamantylamine, 7 ([1]; vs compound 7): 4 times

SMILES: CC12CC3CC1(C)CC3(NCc1ccccc1)C2 [Compound 22a, N-Benzyl-3,7-dimethyl(tricyclo[3.3.0.0^3,7]oct-1-yl)amine hydrochloride]
activity against cultured bloodstream form T. brucei [2]: no significant activity

SMILES: CN(Cc1ccccc1)C12CC3(C)CC1CC3(C)C2 [Compound 23, N-Benzyl-N,3,7-trimethyl(tricyclo[3.3.0.0^3,7]oct-1-yl)amine hydrochloride]
activity against cultured bloodstream form T. brucei [2]: no significant activity

SMILES: CC(N)C12CC3(C)CC1CC3(C)C2 (stereo not drawn) [Compound 25, 1-(3,7-Dimethyltricyclo[3.3.0.0^3,7]oct-1-yl)ethylamine hydrochloride]
times more potent than amantadine as NMDA receptor antagonist ([1]; NMDA challenge): 2.5 times

SMILES: CC12CC3CC1(C)CC3(N(Cc1ccccc1)Cc1ccccc1)C2 [Compound 27, N,N-Dibenzyl-3,7-dimethyl(tricyclo[3.3.0.0^3,7]oct-1-yl)amine hydrochloride]
activity against cultured bloodstream form T. brucei [2]: no significant activity

SMILES: CNC12CC3(C)CC1CC3(C)C2 [Compound 28, N-3,7-Trimethyl(tricyclo[3.3.0.0^3,7]oct-1-yl)amine hydrochloride]
activity against cultured bloodstream form T. brucei [2]: no significant activity

SMILES: CN(Cc1ccccc1)CC12CC3(C)CC1CC3(C)C2 [Compound 32, N-Benzyl-N-methyl[(3,7-dimethyltricyclo[3.3.0.0^3,7]oct-1-yl)methyl]amine hydrochloride]
activity against cultured bloodstream form T. brucei [2]: no significant activity

SMILES: CC12CC3CC1(C)CC3(CN1CCCCC1)C2 [Compound 34, N-[(3,7-Dimethyltricyclo[3.3.0.0^3,7]oct-1-yl)methyl]piperidine hydrochloride]
activity against cultured bloodstream form T. brucei [2]: no significant activity

SMILES: CC12CC3CC1(C)CC3(CNC(=N)N)C2 [Compound 35, N-[(3,7-dimethyltricyclo[3.3.0.0^3,7]oct-1-yl)methyl]guanidine hydrochloride]
activity against cultured bloodstream form T. brucei [2]: without antiviral and trypanocidal activities
times more potent than amantadine as NMDA receptor antagonist ([1]; NMDA challenge): 10 times
times more potent than corresponding noradamantyl analog, 18 ([1]; vs compound 18): 3.5 times
times less potent than memantine as NMDA receptor antagonist ([1]; vs memantine, NMDA challenge): 5 times

SMILES: CNCC12CC3(C)CC1CC3(C)C2 [Compound 36, N-Methyl[(3,7-dimethyltricyclo[3.3.0.0^3,7]oct-1-yl)methyl]amine hydrochloride]
activity against cultured bloodstream form T. brucei [2]: no significant activity
